Laboratory results from paper PMC5286435, “Honeybee locomotion is impaired by Am-CaV3 low voltage-activated Ca^2+ channel antagonist” (Scientific Reports, 2017).

Legend:
[1] = molecular target: T1, Am-CaV3 (Apis mellifera, UniProt A0ACM8RFK5); experiment: two-electrode voltage clamp in Xenopus oocytes, Ba2+ current block; format: cell-based; settings: inhibition (blocker), 10 mM Ba2+, reversible, code printed NNC55-0398 in text, NNC 55-0396 in Figure 1 legend
T1 construct: gene LOC551883; full channel alpha1 subunit cloned from honeybee, mRNA injected in Xenopus oocytes, without CaVbeta; N-terminal region peptide CFDVPSSDGPSDPS (antibody antigen)
T1 sequence (A0ACM8RFK5 1-2566): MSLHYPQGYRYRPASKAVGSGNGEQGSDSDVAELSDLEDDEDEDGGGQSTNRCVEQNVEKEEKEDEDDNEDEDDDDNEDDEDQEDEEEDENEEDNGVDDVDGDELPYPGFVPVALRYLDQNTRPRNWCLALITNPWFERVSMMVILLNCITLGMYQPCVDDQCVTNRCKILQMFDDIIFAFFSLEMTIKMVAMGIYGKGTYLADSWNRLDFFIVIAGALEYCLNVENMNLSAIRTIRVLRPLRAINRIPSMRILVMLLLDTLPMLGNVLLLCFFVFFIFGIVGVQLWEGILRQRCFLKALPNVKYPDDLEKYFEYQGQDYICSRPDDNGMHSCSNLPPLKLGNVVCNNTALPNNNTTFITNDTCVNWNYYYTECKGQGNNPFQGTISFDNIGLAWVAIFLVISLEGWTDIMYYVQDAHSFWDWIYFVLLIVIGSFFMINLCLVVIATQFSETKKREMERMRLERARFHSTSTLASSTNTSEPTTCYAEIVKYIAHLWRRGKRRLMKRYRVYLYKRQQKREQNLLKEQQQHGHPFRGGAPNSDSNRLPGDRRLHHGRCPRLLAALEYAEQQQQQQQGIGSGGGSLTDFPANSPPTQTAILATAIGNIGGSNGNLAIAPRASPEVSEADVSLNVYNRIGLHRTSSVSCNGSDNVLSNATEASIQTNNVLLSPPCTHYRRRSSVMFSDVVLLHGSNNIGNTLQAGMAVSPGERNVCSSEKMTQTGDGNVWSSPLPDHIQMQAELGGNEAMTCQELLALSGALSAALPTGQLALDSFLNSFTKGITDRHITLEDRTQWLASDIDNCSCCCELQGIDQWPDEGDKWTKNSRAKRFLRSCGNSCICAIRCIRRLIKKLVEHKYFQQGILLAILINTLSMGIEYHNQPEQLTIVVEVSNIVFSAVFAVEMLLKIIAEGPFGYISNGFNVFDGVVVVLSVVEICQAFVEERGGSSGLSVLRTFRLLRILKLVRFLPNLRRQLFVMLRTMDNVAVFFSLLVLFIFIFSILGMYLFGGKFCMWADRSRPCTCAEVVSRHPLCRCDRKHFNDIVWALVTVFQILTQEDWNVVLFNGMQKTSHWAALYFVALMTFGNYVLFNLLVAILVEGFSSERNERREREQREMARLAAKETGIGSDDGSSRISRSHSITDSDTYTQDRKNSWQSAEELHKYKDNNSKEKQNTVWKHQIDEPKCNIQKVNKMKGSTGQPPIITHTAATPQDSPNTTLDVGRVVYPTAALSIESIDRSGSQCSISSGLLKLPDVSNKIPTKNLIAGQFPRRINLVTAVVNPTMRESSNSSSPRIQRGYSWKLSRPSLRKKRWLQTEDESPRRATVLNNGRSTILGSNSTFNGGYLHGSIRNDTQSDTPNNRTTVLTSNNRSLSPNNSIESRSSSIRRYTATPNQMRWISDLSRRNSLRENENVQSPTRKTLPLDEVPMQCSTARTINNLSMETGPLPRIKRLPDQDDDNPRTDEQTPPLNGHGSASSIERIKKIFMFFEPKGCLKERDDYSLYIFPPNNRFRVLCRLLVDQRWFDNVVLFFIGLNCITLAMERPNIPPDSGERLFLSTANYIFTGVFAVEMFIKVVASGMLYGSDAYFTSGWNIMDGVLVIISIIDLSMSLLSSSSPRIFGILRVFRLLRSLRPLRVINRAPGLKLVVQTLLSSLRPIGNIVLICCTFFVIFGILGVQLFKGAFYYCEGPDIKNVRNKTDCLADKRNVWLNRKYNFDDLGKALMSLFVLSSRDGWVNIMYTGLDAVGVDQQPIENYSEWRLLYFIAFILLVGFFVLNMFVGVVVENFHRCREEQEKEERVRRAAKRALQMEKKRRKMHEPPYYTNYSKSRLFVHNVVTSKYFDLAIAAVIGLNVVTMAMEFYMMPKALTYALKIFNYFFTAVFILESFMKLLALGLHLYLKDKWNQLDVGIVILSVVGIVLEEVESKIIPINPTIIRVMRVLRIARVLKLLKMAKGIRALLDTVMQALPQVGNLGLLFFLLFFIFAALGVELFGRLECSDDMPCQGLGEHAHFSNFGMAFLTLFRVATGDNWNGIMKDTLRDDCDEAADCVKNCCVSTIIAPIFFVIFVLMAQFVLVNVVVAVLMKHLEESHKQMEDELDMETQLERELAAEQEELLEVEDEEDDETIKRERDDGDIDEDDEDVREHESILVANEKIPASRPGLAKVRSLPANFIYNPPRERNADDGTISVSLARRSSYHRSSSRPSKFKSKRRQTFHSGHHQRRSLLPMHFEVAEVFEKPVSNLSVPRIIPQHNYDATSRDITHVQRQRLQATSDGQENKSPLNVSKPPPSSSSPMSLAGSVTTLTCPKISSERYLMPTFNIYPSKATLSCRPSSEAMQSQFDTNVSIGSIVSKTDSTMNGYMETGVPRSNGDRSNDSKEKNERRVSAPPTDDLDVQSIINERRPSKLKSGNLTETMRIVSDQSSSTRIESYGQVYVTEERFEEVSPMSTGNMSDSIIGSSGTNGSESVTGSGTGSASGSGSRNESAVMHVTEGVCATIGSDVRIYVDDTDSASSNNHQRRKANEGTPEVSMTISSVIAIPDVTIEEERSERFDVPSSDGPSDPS

[2] = molecular target: T1, Am-CaV3; experiment: as above; format: cell-based

CC(C)[C@H]1c2ccc(F)cc2CC[C@@]1(CCN(C)CCCc1nc2ccccc2[nH]1)OC(=O)C1CC1 [NN, NNC 55-0396]
residual current at 10 μM [1]: The mibefradil analogue NNC55-0398 (NN) also had a similar potency

COCC(=O)O[C@]1(CCN(C)CCCc2nc3ccccc3[nH]2)CCc2cc(F)ccc2[C@@H]1C(C)C [Mi, mibefradil]
EC50 [2]: 3.5 µM
